Source: patent USRE45173E1, “Inhibitors of CYP 17” (Novartis AG, priority 2009, dated 2014)

Legend:
[1] = biological target: recombinant human CYP17 enzyme (Homo sapiens (Human), UniProt P05093); assay: Cytochrome P450, 17-20 lyase (CYP17-lyase) assay, tritiated acetic acid release from 17-α-hydroxy pregnenolone [21-3H]; type: biochemical; conditions: human CYP17, substrate 0.25 μM; read-out: Lyase IC 50 nM Human/Rat (Human)
Method in brief: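 Membranes of cells expressing human CYP17 incubated 90 min at room temperature with [21-3H]17α-hydroxypregnenolone and 4.2 mM NADPH in 50 mM phosphate pH 7.5. Released tritiated acetic acid separated from steroids by charcoal and counted by scintillation; IC50 from sigmoidal fit of % inhibition.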

[2] = biological target: rat CYP17 lyase (Rattus norvegicus (Rat), UniProt P11715); assay: rat CYP 17 Lyase model, rat testes microsomes as the source; type: biochemical; conditions: for IC50: rat testes microsomes, substrate 0.5 μM, read-out: Lyase IC 50 nM Human/Rat (Rat); for inhibition at 0.1 µM: 100 nM compound, read-out: rCYP17 Lyase % Inh @ 100 nM
Protocol: For routine screening, the assay was set up with 16 μg of enzyme in 50 μL reaction volume. 17α-hydroxy pregnenolone [21-3H] was added to a final concentration of 0.25 μM. NADPH is used at a final concentration of 4.2 mM. Total reaction volume was made up to 50 μL with 50 mM Phosphate buffer pH 7.5. The reaction mixture was incubated at room temperature for 90 minutes with gentle shaking. The reaction was stopped by the addition of 100 μL of buffer. 500 μL of 5% freshly prepared activated charcoal was added to the solution and mixed well by vortexing. The samples were centrifuged at 17568×g for 5 minutes. (14000 rpm). The supernatant was carefully transferred to fresh tube and 1.3 mL of scintillation fluid was added, mixed by vortexing.
The radioactivity was measured in a 1450 MicroBeta TriLux™ scintillation counter from Wallac-Perkin Elmer®, USA. The measurements were carried out in 2.0 mL Eppendorforf™ tubes. Each tube was counted for 1 minute. The amount of tritiated acetic acid released is proportional to the lyase activity. Percent lyase activity in presence of inhibitor was calculated using the formula given below.
[formula] • Sample: Enzyme reaction in presence of inhibitor. • Positive control: Enzyme reaction without inhibitor but containing DMSO at 1% final concentration. • Blank-Contains all reagents except enzyme. % Inhibition=100%−% Lyase activity
For IC50 determination, the % inhibition was plotted as a function of inhibitor concentration. The data was fitted to sigmoidal equation using Graphpad Prism® software IV to generate IC50 values.
For the rat CYP 17 Lyase Model:
The same procedure described above was used but using rat testes microsomes as the source and with a substrate concentration of 0.5 μM.

Chain of recombinant human CYP17 enzyme (P05093 whole entry): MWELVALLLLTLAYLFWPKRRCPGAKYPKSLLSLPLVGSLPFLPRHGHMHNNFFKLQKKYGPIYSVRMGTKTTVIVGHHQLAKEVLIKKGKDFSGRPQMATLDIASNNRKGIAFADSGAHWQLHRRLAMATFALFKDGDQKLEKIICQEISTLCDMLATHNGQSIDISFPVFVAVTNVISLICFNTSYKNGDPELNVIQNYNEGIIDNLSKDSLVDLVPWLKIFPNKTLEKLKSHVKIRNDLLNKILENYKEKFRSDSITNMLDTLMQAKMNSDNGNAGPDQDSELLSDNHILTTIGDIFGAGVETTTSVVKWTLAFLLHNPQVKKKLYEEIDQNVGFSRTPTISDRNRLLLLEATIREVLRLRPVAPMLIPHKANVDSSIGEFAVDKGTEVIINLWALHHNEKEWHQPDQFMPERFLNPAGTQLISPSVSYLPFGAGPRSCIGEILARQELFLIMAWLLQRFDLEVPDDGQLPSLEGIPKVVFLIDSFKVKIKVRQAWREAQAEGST
Chain of rat CYP17 lyase (P11715 whole entry): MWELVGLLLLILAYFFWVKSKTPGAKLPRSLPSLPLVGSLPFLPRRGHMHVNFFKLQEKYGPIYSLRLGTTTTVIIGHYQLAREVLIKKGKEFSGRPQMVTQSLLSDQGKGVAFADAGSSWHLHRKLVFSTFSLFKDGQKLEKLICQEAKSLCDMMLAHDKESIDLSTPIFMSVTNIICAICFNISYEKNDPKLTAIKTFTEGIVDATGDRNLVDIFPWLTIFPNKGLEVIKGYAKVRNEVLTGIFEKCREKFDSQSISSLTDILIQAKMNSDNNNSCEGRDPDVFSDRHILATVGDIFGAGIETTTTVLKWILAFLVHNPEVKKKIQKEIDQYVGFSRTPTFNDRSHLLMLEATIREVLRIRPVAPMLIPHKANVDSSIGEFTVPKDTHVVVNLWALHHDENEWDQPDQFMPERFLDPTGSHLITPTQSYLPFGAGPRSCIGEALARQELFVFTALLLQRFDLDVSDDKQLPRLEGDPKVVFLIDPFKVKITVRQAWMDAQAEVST

| Structure (SMILES) | IC50 [1] | IC50 [2] | inhibition at 0.1 µM [2] |
| --- | --- | --- | --- |
| Cc1cccc(N2CCN(c3cnccc3C)C2=O)c1 [Example 55A, 1-(4-Methyl-pyridin-3-yl)-3-m-tolyl-imidazolidin-2-one] | 9 nM | 7 nM |  |
| Cc1ccncc1N1CCN(c2ccc(Cl)s2)C1=O [Example 41A, 1-(5-Chloro-thiophen-2-yl)-3-(4-methyl-pyridin-3-yl)-imidazolidin-2-one] | 10 nM | 3 nM |  |
| Cc1ccncc1N1CCN(c2ccc3sccc3c2)C1=O [Example 27A, 1-Benzo[b]thiophen-5-yl-3-(4-methyl-pyridin-3-yl)-imidazolidin-2-one] | 24 nM |  | 101% |
| Cc1ccncc1N1CCN(c2ccsc2)C1=O [Example 31A, 1-(4-Methyl-pyridin-3-yl)-3-thiophen-3-yl-imidazolidin-2-one] | 108 nM |  | 74% |
| Cc1ccncc1N1CCN(c2ccc(F)cc2)C1=O [Example 18A, 1-(4-Fluoro-phenyl)-3-(4-methyl-pyridin-3-yl)-imidazolidin-2-one] | 76 nM | 12 nM | 88% |
| Cc1ccncc1N1CCN(c2cccc(C(F)(F)F)c2)C1=O [Example 70A, 1-(4-Methyl-pyridin-3-yl)-3-(3-trifluoromethyl-phenyl)-imidazolidin-2-One] | 6.5 nM | 2 nM |  |
| Cc1ccncc1N1CCN(c2ccc3ncccc3c2)C1=O [Example 52A, 1-(4-Methyl-pyridin-3-yl)-3-quinolin-6-yl-imidazolidin-2-one] | 96 nM | 5 nM | 97% |
